Test systems include SN12C renal; RPMI-8226 leukemia; MOLT-4 leukemia; CCRF-CEM leukemia; NCI/ADR-RES ovarian; NCI-H226 lung; UACC-62 melanoma; TK-10 renal; SNB-75 CNS; MDA-MB-435; K-562 leukemia; T-47D breast; HOP-92 NSCLC; MALME-3M melanoma; SK-MEL-2 melanoma; OVCAR-3 ovarian; NCI-H460 lung; RXF 393 renal; OVCAR-4 ovarian; MCF7 breast.
Common to all, as to assay: NCI anticancer screen, dose series, 48 h

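Step 1: Grow cells in 96-well plates. Step 2: Expose to compound for 48 hours at 5 concentrations. Step 3: Interpolate endpoints linearly; if unreached, use highest concentration. Definition used: TGI = concentration required for complete inhibition of growth.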

In PubChem BioAssay (NCI) one finds TGI data, which are given here for 8 compounds.

For the compound `C=CCCON(C(=O)OC(C)(C)C)c1ccccc1`, the TGI in the experiment with SN12C renal, with RPMI-8226 leukemia, in the experiment with MOLT-4 leukemia, in the experiment on CCRF-CEM leukemia, in the experiment with NCI/ADR-RES ovarian and in the experiment with NCI-H226 lung was over 100 µM in each case. In addition, the TGI in the experiment on UACC-62 melanoma, with TK-10 renal, with SNB-75 CNS, with MDA-MB-435, with K-562 leukemia and in the experiment on T-47D breast was over 100 µM throughout. Further, the TGI with HOP-92 NSCLC, in the experiment with MALME-3M melanoma, with SK-MEL-2 melanoma, with OVCAR-3 ovarian, in the experiment on NCI-H460 lung and with RXF 393 renal was over 100 µM in each case.
Take `N#CSCC(Cl)=CCl` (mixture of isomers): the TGI was over 100 µM in the experiment on SN12C renal; over 100 µM in the experiment on RPMI-8226 leukemia; 97.5 µM in the experiment with MOLT-4 leukemia; over 100 µM in the experiment on CCRF-CEM leukemia; over 100 µM with NCI/ADR-RES ovarian; over 100 µM in the experiment with NCI-H226 lung. The TGI with OVCAR-4 ovarian, with UACC-62 melanoma, in the experiment with TK-10 renal, with SNB-75 CNS, in the experiment on MDA-MB-435 and in the experiment with K-562 leukemia was over 100 µM in each case. In addition, the TGI in the experiment with T-47D breast, with HOP-92 NSCLC, with MALME-3M melanoma, in the experiment with SK-MEL-2 melanoma, in the experiment on OVCAR-3 ovarian and in the experiment on NCI-H460 lung was over 100 µM in each case. Also, the TGI with RXF 393 renal was over 100 µM.
Turning to `CCCCCCCC(CC(=O)NC(CO)C(=O)NC(CO)CC(C)C)OC(=O)CC(CCCCCCC)OC(=O)CC(CCCCCCC)OC1OC(C)C(O)C(OC2OC(C)C(OC(C)=O)C(O)C2O)C1O` (stereo not drawn), the TGI in the experiment with SN12C renal amounted to 18.6 µM; in the experiment with MOLT-4 leukemia, 12.2 µM; with CCRF-CEM leukemia, 14.2 µM; with MCF7 breast, 23.8 µM; in the experiment with NCI-H226 lung, 35.5 µM; in the experiment with OVCAR-4 ovarian, 19.4 µM. For the same compound, the TGI in the experiment on UACC-62 melanoma was 19 µM; in the experiment on TK-10 renal, 29.8 µM; with SNB-75 CNS, 16.3 µM; in the experiment on MDA-MB-435 it was 19.4 µM; in the experiment with K-562 leukemia it was 34.3 µM; with T-47D breast, 23.1 µM. Besides, the TGI was determined as 21 µM in the experiment with HOP-92 NSCLC; 23.9 µM in the experiment with MALME-3M melanoma; 24.2 µM in the experiment with OVCAR-3 ovarian; 15.6 µM in the experiment with NCI-H460 lung; 16.9 µM in the experiment with RXF 393 renal.
For the compound `COc1ccc(-c2c(C(C)=O)c(-c3ccccc3)n(C3OC(CO)C(O)C(O)C3O)c(=S)c2C#N)cc1` (stereo not drawn), the TGI in the experiment with SN12C renal, with MOLT-4 leukemia, in the experiment on CCRF-CEM leukemia, in the experiment on NCI/ADR-RES ovarian, in the experiment on MCF7 breast and in the experiment on NCI-H226 lung was over 100 µM in each case. The TGI in the experiment with OVCAR-4 ovarian, in the experiment with UACC-62 melanoma, with TK-10 renal, in the experiment with MDA-MB-435, in the experiment on K-562 leukemia and in the experiment on T-47D breast was over 100 µM throughout. Moreover, the TGI in the experiment on MALME-3M melanoma, in the experiment on OVCAR-3 ovarian, in the experiment on NCI-H460 lung and in the experiment on RXF 393 renal was over 100 µM throughout.
As to `NC(=Nc1ccccc1Cl)c1ccccc1N`, the TGI in the experiment with RPMI-8226 leukemia, in the experiment with MOLT-4 leukemia, in the experiment with CCRF-CEM leukemia, with NCI/ADR-RES ovarian, with MCF7 breast and in the experiment on NCI-H226 lung was over 100 µM in each case. Also, the TGI in the experiment with OVCAR-4 ovarian, in the experiment on UACC-62 melanoma, in the experiment with TK-10 renal, with SNB-75 CNS, in the experiment on MDA-MB-435 and in the experiment with K-562 leukemia was over 100 µM each time. Besides, the TGI with HOP-92 NSCLC was 86.5 µM; with MALME-3M melanoma, over 100 µM; in the experiment with SK-MEL-2 melanoma, over 100 µM; in the experiment on OVCAR-3 ovarian, over 100 µM; with NCI-H460 lung, over 100 µM; with RXF 393 renal, over 100 µM.
As for `COc1c(=O)cc2cc[nH]c3cc[nH]c1c23`, the TGI with SN12C renal was over 100 µM; in the experiment on RPMI-8226 leukemia it was over 100 µM; in the experiment on MOLT-4 leukemia, over 100 µM; in the experiment with CCRF-CEM leukemia it was over 100 µM; in the experiment with NCI/ADR-RES ovarian, over 100 µM; with MCF7 breast, 92.6 µM. The TGI in the experiment on NCI-H226 lung, in the experiment with OVCAR-4 ovarian, in the experiment on UACC-62 melanoma, in the experiment on TK-10 renal, in the experiment with MDA-MB-435 and in the experiment with K-562 leukemia was over 100 µM each time. In addition, the TGI in the experiment on HOP-92 NSCLC is over 100 µM; with MALME-3M melanoma, over 100 µM; in the experiment with SK-MEL-2 melanoma it was over 100 µM; in the experiment on OVCAR-3 ovarian it was 47.8 µM; in the experiment with NCI-H460 lung it was over 100 µM; with RXF 393 renal it was over 100 µM.
Turning to `CC1C2CC(C(S(=O)(=O)O)C2=O)C1(C)C` (stereo not drawn), the TGI in the experiment with SN12C renal, in the experiment on MOLT-4 leukemia, with CCRF-CEM leukemia, with MCF7 breast, in the experiment with NCI-H226 lung and with OVCAR-4 ovarian was over 100 µM throughout. For the same compound, the TGI in the experiment with UACC-62 melanoma, with TK-10 renal, with SNB-75 CNS, in the experiment on MDA-MB-435, in the experiment on K-562 leukemia and in the experiment on T-47D breast was over 100 µM throughout. Besides, the TGI with HOP-92 NSCLC, in the experiment on MALME-3M melanoma, with OVCAR-3 ovarian, in the experiment on NCI-H460 lung and with RXF 393 renal was over 100 µM in each case.
For `N[C@@H]1CCN(c2c(F)cc3c(=O)c(C(=O)O)cn4c3c2Oc2c-4ccc3c2ccc2ccccc23)C1`, the TGI is over 100 µM in the experiment with SN12C renal; 36.3 µM with RPMI-8226 leukemia; over 100 µM with MOLT-4 leukemia; over 100 µM with NCI/ADR-RES ovarian; 3.34 µM in the experiment with MCF7 breast; over 100 µM in the experiment on NCI-H226 lung. Besides, the TGI is over 100 µM in the experiment on UACC-62 melanoma; 40 µM with TK-10 renal; over 100 µM in the experiment with MDA-MB-435; over 100 µM in the experiment with K-562 leukemia; 61.7 µM in the experiment with HOP-92 NSCLC; over 100 µM in the experiment on SK-MEL-2 melanoma. Moreover, the TGI in the experiment on OVCAR-3 ovarian was over 100 µM; in the experiment with NCI-H460 lung, 2.91 µM; in the experiment with RXF 393 renal, over 100 µM.
